The test has as its target T1, Ecdysone receptor (Spodoptera frugiperda, UniProt Q8MWR1+Q8MWR2).
T1 sequence (Q8MWR2 whole entry): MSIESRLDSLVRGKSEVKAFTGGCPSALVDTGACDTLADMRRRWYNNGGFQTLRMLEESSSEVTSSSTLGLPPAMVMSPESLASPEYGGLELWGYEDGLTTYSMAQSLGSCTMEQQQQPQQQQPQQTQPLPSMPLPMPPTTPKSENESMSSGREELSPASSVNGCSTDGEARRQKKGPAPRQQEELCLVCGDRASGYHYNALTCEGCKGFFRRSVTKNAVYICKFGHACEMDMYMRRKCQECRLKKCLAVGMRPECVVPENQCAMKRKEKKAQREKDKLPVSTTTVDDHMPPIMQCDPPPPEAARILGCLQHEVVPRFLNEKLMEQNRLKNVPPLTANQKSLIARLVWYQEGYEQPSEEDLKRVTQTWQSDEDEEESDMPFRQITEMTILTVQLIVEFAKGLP
T1 sequence (Q8MWR1 whole entry): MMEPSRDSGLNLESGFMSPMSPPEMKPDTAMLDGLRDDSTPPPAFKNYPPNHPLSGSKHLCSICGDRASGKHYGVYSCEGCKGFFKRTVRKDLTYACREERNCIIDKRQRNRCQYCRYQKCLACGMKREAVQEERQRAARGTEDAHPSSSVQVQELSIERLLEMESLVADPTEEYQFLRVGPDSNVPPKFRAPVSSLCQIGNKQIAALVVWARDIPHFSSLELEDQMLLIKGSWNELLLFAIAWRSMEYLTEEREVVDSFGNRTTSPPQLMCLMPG
Description: Displacement of [3H]PonA from ecdysone receptor in Spodoptera frugiperda (fall armyworm) Sf-9 cells after 30 min by liquid scintillation counting. In kind it is cell-based. (In general: In a radioligand displacement assay an active substance lowers the binding of a labelled ligand.)

pIC50: −log10 of the molar value.

The pIC50 is the IC50 on a negative log10 scale, so that one unit is a factor of ten.

Compound `CC(=O)c1ccc(C(=O)NN(C(=O)c2ccccc2Cl)C(C)(C)C)cc1` showed a negative logarithm of the IC50 (pIC50) of 6.37.
To `CC(C)(C)c1ccc(C(=O)NN(C(=O)c2ccccc2Cl)C(C)(C)C)cc1` belongs 7.66; to `CCc1ccc(C(=O)NN(C(=O)c2ccccc2Cl)C(C)(C)C)cc1`, 7.89; to `CC(C)(C)N(NC(=O)c1ccc([N+](=O)[O-])cc1)C(=O)c1ccccc1Cl`, 6.42.
To `CC(C)(C)N(NC(=O)c1ccc(C#N)cc1)C(=O)c1ccccc1Cl` belongs 5.74; to `CC(C)(C)N(NC(=O)c1ccc(-c2ccccc2)cc1)C(=O)c1ccccc1Cl`, 5.17.
With `CC(C)(C)N(NC(=O)c1ccc(C(F)(F)F)cc1)C(=O)c1ccccc1Cl`, the pIC50 is 6.96. Compared with the last compound, the pIC50 is 1.79 log units higher.
`Cc1ccc(C(=O)NN(C(=O)c2ccccc2Cl)C(C)(C)C)cc1` gave a pIC50 of 7.28.
To `CC(C)c1ccc(C(=O)NN(C(=O)c2ccccc2Cl)C(C)(C)C)cc1` belongs 7.82; to `CC(C)(C)N(NC(=O)c1ccc(Br)cc1)C(=O)c1ccccc1Cl`, 7.69.
To `COc1ccc(C(=O)NN(C(=O)c2ccccc2Cl)C(C)(C)C)cc1` belongs 7.21; to `CC(C)(C)N(NC(=O)c1ccc(Cl)cc1)C(=O)c1ccccc1Cl`, 6.89.
To `CC(C)(C)N(NC(=O)c1ccc(I)cc1)C(=O)c1ccccc1Cl` belongs 7.30.
Regarding `CCCCc1ccc(C(=O)NN(C(=O)c2ccccc2Cl)C(C)(C)C)cc1`, the negative-log IC50 (pIC50) was 8.27. This pIC50 is 0.97 log units higher than that of the compound before.
To `CCCc1ccc(C(=O)NN(C(=O)c2ccccc2Cl)C(C)(C)C)cc1` belongs 7.64; to `CC(C)(C)N(NC(=O)c1ccc(S(C)(=O)=O)cc1)C(=O)c1ccccc1Cl`, 5.54; to `CC(C)(C)N(NC(=O)c1ccccc1)C(=O)c1ccccc1Cl`, 7.08.
To `CC(C)(C)N(NC(=O)c1ccc(F)cc1)C(=O)c1ccccc1Cl` belongs 7.29.

These data come from ChEMBL document CHEMBL3046124, “QSAR for Binding Affinity of Substituted Dibenzoylhydrazines to Intact Sf-9 Cells” (J Pestic Sci, 2005).
